Article PMC12327690, “Secreted LysM proteins are required for niche competition and full virulence in Pseudomonas savastanoi during host plant infection” (PLOS Pathogens, 2025)

Target: T1, LysM3 (Pseudomonas savastanoi, UniProt Q48F89)
T1 construct: gene PSPPH_3810; LysM + M23 domains; pET28a::lysM3 in E. coli BL21(DE3), HisTrap IMAC then SEC
Assay: nanoDSF (Tycho NT.[…]) thermal shift
Format: binding
Conditions: 1 mM ligand, 5 µM protein, no Zn2+, 20 mM Hepes pH 8.0, 150 mM NaCl

T1 sequence (Q48F89 entry or part of it): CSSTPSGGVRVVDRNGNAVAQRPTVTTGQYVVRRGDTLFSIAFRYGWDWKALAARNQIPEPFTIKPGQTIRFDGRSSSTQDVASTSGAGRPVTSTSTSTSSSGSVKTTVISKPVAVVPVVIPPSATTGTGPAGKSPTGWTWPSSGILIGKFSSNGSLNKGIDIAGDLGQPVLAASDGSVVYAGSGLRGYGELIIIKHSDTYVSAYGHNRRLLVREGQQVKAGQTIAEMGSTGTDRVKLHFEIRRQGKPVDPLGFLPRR

SMILES | Ti with ligand (LysM3 alone 51.4 ± 0.1)
CC(=O)N[C@H]1[C@H](O[C@H]2[C@H](O)[C@@H](NC(C)=O)C(O)O[C@@H]2CO)O[C@H](CO)[C@@H](O[C@@H]2O[C@H](CO)[C@@H](O[C@@H]3O[C@H](CO)[C@@H](O)[C@H](O)[C@H]3NC(C)=O)[C@H](O)[C@H]2NC(C)=O)[C@@H]1O (some centres unmarked) [NAG4, tetra-N-acetylglucosamine] | 52.9 ± 0.1 °C
CC(=O)N[C@H]1[C@H](O[C@H]2[C@H](O)[C@@H](NC(C)=O)[C@H](O[C@H]3[C@H](O)[C@@H](NC(C)=O)C(O)O[C@@H]3CO)O[C@@H]2CO)O[C@H](CO)[C@@H](O[C@@H]2O[C@H](CO)[C@@H](O[C@@H]3O[C@H](CO)[C@@H](O[C@@H]4O[C@H](CO)[C@@H](O)[C@H](O)[C@H]4NC(C)=O)[C@H](O)[C@H]3NC(C)=O)[C@H](O)[C@H]2NC(C)=O)[C@@H]1O (some centres unmarked) [NAG6, hexa-N-acetylglucosamine] | 52.7 ± 0.4 °C
